System: human estrogen receptor α (hERα) or β receptor (hERβ)
Experiment: in vitro transactivation bioassay (luciferase reporter) in recombinant CHO cells, estrogenic (agonist) activity compared with estradiol
Assay type: cell-based
Details: percentage agonist activity for ER α divided by percentage agonist activity for ER β; CHO cells co-transfected with hERα or hERβ, rat oxytocin promoter and luciferase reporter
Experimental: Compounds are tested for their estrogen receptor activity in a binding assay and in a transactivation assay. The estrogenic and antiestrogenic activity of compounds is determined in an in vitro bioassay with recombinant Chinese hamster ovary (CHO) cells stably co-transfected with the human estrogen receptor α (hERα) or β receptor (hERβ), the rat oxytocin promoter (RO) and the luciferase reporter gene (LUC). The estrogenic activity (potency ratio) of a test compound to stimulate the transactivation of the enzyme luciferase mediated via the estrogen receptors hERα or hERβ is compared with the standard estrogen estradiol. The antiestrogenic activity (potency ratio) of a test compound to inhibit the transactivation of the enzyme luciferase mediated via the estrogen receptors hERα or hERβ by the estrogen estradiol is compared with the standard ICI 164.384 (=(7α,17β)-N-butyl-3,17-dihydroxy-N-methylestra-1,3,5(10)-triene-7-undecanamide). A quantitative parameter for agonist selectivity is obtained by dividing the percentage agonist activity for ER α by the percentage agonist activity for ER β. Compound 11a has agonist selectivity for estrogen receptor α over estrogen receptor β of more than 86 times. Compound 26 has an agonist selectivity for ER α over ER β of 59 times. Compound 27 has agonist selectivity of 88.3 times.

C#CC1(O)C(C)CC2C3CCC4=C(CCC(O)C4)C3C(CC=C)CC21C (stereo not drawn) [Compound 27, (3α,11β,16α,17β)-16-methyl-11-(2-propenyl)-19-norpregn-5(10)-en-20-yne-3,17-diol]
agonist selectivity for estrogen receptor α over estrogen receptor β: 88.3 times

From patent publication US7696190B2, “16Alpha-methyl or ethyl substituted estrogens” (N.V. Organon, priority 2000, dated 2010)
